# Test results from EP4467141A1, “PYRAZOLO-QUINOLINES AS SELECTIVE INHIBITORS OF GENOTOXIC STRESS-INDUCED IKK/NF- KB PATHWAYS FOR CANCER THERAPY” (Max-Delbrück-Centrum für Molekulare Medizin in der …, priority 2023, dated 2024).
# Entries after “also recorded” stand apart in the source; their conditions may differ. Like-named read-outs stand apart in the source and are kept apart here.
# Tests used:
# [1] = system: NF-κB subunit p65 phosphorylation (S536); assay: Western blot of p65 phosphorylation (S536) after DNA damage (irradiation or etoposide) in U2-OS cells; assay type: cell-based; conditions: for phosphorylation of p65 at serine 536 after DNA damage: 1-hour pre-treatment, irradiation (IR, 20 Gy), 90 min; for activity in cell-based NF-κB activation assays: 10 µM, p65 phosphorylation and NFKBIA expression after irradiation
# Procedure: Fig.1: Identification of inhibitors specific for DNA damage-induced NF-κB activity. (A) Flowchart representing the high-throughput chemical library screening. A screen/counter-screen strategy was used by stimulating NF-κB in U2-OS cells with etoposide (50 µM for 90 min) and hits were counter-screened with TNFα (10 ng/ml for 20 min). Cells were pre-treated with compounds (10 µM) for 1 hour before stimulation, fixed, and percent p65 nuclear translocation measured by fluorescence microscopy. IC50 values were used for final selection. (B) Comparison of mean p65 nuclear translocation following either etoposide or TNFa stimulation after treatment with each counter-screened hit compound. Values were normalized to etoposide or TNFα positive controls. Specific inhibitors (red) of DNA damage-induced NF-κB signaling were defined by setting cut-off criteria (black line). […] (C) IC50 determination for MW01 (left) and MW05 (right) of p65 nuclear translocation, following either etoposide or TNFα treatment. […] IC50 noted with a dotted line. (D) Structures of compounds selected as leads for further analysis, MW01 (5-Hydroxy-10,11-dimethoxy-9H-benzo[c]indolo[3,2,1-ij][1,5]naphthyridin-9-one) and MW05 (3-Amino-7-methoxypyrazolo[3,4-b]quinolin-1-yl)-[3-(dimethylamino)phenyl]methanone). (E) Western blot analysis (top) and quantification (bottom) of NF-κB subunit p65 phosphorylation (S536) following 1-hour pre-treatment with DMSO, MW01 (10 µM), or MW05 (10 µM), in unstimulated, after 90 min irradiation (IR, 20 Gy), or after 20 min TNFα (10 ng/mL) conditions in U2- OS cells. B-actin was used as loading control after. The p-p65 signal was first normalized to β-actin loading control per sample, then each value to DMSO-treated unstimulated to evaluate relative activation of NF-κB. Ns: not significant; ***: p<0.001.
# NF-κB was stimulated by DNA damage through either 20 Gy irradiation (IR) and analyzed after 90 minutes or by 10 ng/ml TNFα and analyzed after 20 minutes unless otherwise noted.
# All compounds were pre-treated for 1-hour prior to NF-κB stimulation unless otherwise noted.
# Cells were collected by scraping and lysed in Baeuerle lysis buffer supplemented with Protease (Thermo Fisher Scientific, 78429) and Phosphatase (Thermo Fisher Scientific, 78420) inhibitors after the appropriate treatment and time point. Proteins were quantified by Bradford assay (Bio-Rad, 5000006) and 20-50 µg of extracted proteins were loaded on 4-20% Protein Gel (Bio-Rad, 4568096) and then transferred onto a PVDF membrane (Bio-Rad, 1620177) using Tris-Glycine buffer with 20% of methanol. Blocking was performed for 1h with 5% not-fat dry milk in PBS 1X. Immunodetection was obtained using primary and secondary antibodies reported in Key Resources Table. The membranes were analyzed by ECL (Thermo Fisher Scientific, 34580) and detected by ChemiDoc XRS+ (Bio-Rad) using ImageLab software (Bio-Rad).
# CLK3 = biological target: T1, CLK3 (Homo sapiens, UniProt P49761); assay: Kinase panel study; assay type: biochemical; conditions: for CLK3 inhibition: in vitro kinase assay, isoform specificity; for inhibition at 10 µM: CLK3, compound at 10µM
# T1 construct: purchased Thermo Fisher Scientific
# T1 sequence (P49761 whole entry, canonical isoform): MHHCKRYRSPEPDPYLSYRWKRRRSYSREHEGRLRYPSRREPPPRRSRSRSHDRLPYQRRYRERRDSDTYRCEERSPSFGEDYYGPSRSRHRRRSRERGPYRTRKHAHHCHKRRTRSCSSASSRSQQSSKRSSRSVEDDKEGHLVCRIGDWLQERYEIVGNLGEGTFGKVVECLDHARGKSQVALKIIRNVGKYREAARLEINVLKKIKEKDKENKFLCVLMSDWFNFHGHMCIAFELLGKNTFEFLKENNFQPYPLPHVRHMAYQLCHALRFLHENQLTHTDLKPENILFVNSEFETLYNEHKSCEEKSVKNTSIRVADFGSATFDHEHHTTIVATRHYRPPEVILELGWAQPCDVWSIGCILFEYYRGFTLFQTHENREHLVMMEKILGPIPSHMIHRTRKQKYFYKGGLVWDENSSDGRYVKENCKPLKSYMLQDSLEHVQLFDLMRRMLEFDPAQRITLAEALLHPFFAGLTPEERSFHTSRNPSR
# Procedure: The Kinase panel study was entirely provided by Thermo Fisher Scientific using the two lead compounds MW01 and MW05 as well as their derivatives (MW01-E06, MW01-E10, MW01-E14, MW01-E18, MW05-E2, MW05-E3, MW05-E9 and MW05-E10. The experiment was performed using the ZLyte or Adapta protocol according to manufacturer standard operating procedures. […]
# CLK4 = biological target: T2, CLK4 (Homo sapiens, UniProt Q9HAZ1); assay: Kinase panel study; assay type: biochemical
# T2 construct: purchased Thermo Fisher Scientific
# T2 sequence (Q9HAZ1 whole entry): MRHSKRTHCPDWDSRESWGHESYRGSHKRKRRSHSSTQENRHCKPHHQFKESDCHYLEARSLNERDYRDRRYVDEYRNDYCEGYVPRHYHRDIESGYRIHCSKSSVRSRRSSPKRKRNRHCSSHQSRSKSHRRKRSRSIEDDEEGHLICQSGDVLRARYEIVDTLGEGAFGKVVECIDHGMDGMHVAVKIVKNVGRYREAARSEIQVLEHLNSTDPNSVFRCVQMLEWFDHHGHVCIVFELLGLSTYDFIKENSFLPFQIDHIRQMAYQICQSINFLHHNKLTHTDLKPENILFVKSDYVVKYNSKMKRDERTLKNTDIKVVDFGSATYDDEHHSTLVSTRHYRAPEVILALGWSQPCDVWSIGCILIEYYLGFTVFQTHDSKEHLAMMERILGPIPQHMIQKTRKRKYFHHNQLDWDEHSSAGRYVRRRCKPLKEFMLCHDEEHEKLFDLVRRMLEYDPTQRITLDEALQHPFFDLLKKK
# Procedure: (§1) The Kinase panel study was entirely provided by Thermo Fisher Scientific using the two lead compounds MW01 and MW05 as well as their derivatives (MW01-E06, MW01-E10, MW01-E14, MW01-E18, MW05-E2, MW05-E3, MW05-E9 and MW05-E10. The experiment was performed using the ZLyte or Adapta protocol according to manufacturer standard operating procedures.
# (§2) Based on their similar effects in our screen and molecular analysis, MW01 and MW05 were used in comparative target deconvolution studies seeking common targets despite their distinct structures. To eliminate previously identified kinases regulating NF-κB activity, such as IKK, as possible targets of MW01 and MW05, an in vitro kinase inhibition assay was performed. […] We next investigated if any of the shared kinase targets of MW01 and MW05 play a role in genotoxic stress-induced NF-κB activity and established several criteria to narrow down pathway-relevant targets. Considering the similar NF-κB inhibition phenotypes of both compounds, we hypothesized first that the target should be shared by both lead compounds. Second, based on the CaCo2 recovery values and experimental treatment concentration of 10 µM), the putative target kinase should have a low IC50 of, at most, 2000 nM for both lead compounds in the in vitro kinase panel (Fig. 2A). Based on these criteria alone, we arrived at a relatively short list of potential targets for further analysis, leaving only PIK3CG, PIK3C2G, and CLK2 (Fig. 2B). IC50 values for PIK3C2G by both lead compounds agreed best with these criteria, but RNA expression analysis indicates high tissue specificity as well as lack of expression of this kinase in our U2-OS model cell line, which we then eliminated from further analysis (Uhlén et al., 2015). […] Table 6: Percentage of inhibition of the indicated kinases by MW01 or MW05 at either 10 µM or 1 µM. n.d. = not determined. […]
# (§3) To validate the structural backbones of MW01 and MW05 and leverage additional structures in discerning on- and off-target activity, we screened more than 30 structural derivatives for similar NF-κB pathway inhibition compared to our lead compounds following irradiation or TNF stimulation (Table 1 and 2). Several structural derivatives of each lead compound were identified which reduced p-p65 and NFKBIA expression in an irradiation-specific manner. (Fig 3A, B, C, Fig. 8). […] As expected for structurally similar derivatives, kinase inhibition profiles of active derivatives were similar to the respective lead compounds, validating the common structural backbones of each as kinase inhibitors. However, inhibition of several kinases was lost some derivatives of MW01 and MW05, including PI3K isoforms, adding further evidence that the NF-κB inhibition by our compounds is not mediated by inhibition of these kinases. […] Considering the phenotypic similarity between two structurally distinct lead compounds, the agreement of the derivatives with our kinase IC50 criteria, and significant results following siRNA knockdown of CLK2 and CLK4, we proceeded to further characterize our lead compounds.
# CLK2 = biological target: T3, CLK2 (Homo sapiens, UniProt P49760); assay: Kinase panel study; assay type: biochemical; conditions: for inhibition at 1 µM: 1000nM; for IC50: in vitro kinase panel
# T3 construct: purchased Thermo Fisher Scientific
# T3 sequence (P49760 whole entry): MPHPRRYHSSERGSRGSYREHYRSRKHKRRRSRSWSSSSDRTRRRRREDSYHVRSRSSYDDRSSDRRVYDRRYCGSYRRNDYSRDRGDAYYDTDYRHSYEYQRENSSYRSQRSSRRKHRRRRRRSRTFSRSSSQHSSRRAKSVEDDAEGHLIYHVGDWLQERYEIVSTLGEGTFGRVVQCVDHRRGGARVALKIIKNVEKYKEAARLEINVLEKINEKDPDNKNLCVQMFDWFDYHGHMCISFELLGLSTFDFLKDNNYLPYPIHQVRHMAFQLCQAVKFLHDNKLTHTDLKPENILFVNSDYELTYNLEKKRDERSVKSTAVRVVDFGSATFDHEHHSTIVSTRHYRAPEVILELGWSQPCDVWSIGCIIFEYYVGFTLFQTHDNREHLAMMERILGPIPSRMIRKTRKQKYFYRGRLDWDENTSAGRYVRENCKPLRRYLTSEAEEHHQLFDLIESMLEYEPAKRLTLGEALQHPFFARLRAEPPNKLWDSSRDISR
# Procedure: as §1, §2, §3
# CLK1 = biological target: T4, CLK1 (Homo sapiens, UniProt P49759); assay: Kinase panel study; assay type: biochemical
# T4 construct: purchased Thermo Fisher Scientific
# T4 sequence (P49759 whole entry): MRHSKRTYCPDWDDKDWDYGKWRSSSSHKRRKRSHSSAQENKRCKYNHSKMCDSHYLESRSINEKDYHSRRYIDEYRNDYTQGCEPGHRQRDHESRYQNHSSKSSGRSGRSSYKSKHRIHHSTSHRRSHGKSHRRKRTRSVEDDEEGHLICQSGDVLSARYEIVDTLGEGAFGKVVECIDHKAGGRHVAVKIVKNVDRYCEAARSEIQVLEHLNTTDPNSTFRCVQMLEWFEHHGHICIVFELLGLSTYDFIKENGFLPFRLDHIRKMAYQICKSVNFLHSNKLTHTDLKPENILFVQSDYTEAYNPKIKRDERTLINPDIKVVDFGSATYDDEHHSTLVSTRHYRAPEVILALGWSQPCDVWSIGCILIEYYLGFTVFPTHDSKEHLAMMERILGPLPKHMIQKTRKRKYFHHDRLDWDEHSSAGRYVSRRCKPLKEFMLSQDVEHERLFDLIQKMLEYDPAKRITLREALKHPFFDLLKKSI
# Procedure: as §1, §2
# [2] = 10000nM, read-out: Percentage of inhibition
# [3] = first CLK2 line of the table, read-out: Percentage of inhibition
# [4] = second CLK2 line of the table, read-out: Percentage of inhibition
# [5] = 10000nM, first CLK2 line of the table, read-out: Percentage of inhibition
# [6] = 10000nM, second CLK2 line of the table, read-out: Percentage of inhibition
# [7] = CLK4, compound at 10µM, read-out: % of Inhibition
# [8] = CLK2, compound at 10µM, read-out: % of Inhibition
# [9] = CLK1, compound at 10µM, read-out: % of Inhibition
inhibition at 10 µM (CLK3),inhibition at 10 µM (CLK4; [7]),inhibition at 10 µM (CLK2; [8]),inhibition at 10 µM (CLK1; [9]),CLK2 inhibition (CLK2; in vitro kinase assay),SMILES,phosphorylation of p65 at serine 536 after DNA damage [1],CLK3 inhibition (CLK3),inhibition at 10 µM (CLK4; [2]),inhibition at 1 µM (CLK2; [3]),inhibition at 1 µM (CLK2; [4]),inhibition at 10 µM (CLK2; [5]),inhibition at 10 µM (CLK2; [6]),IC50 (CLK2),inhibition at 10 µM (CLK1; [2]),activity in cell-based NF-κB activation assays [1]
,,,,,"COc1ccc2c(c1OC)c(=O)n1c3ccc(O)cc3c3ccnc2c31 [MW01, 5-Hydroxy-10,11-dimethoxy-9H-benzo[c]indolo[3,2,1-ij][1,5]naphthyridin-9-one]",significantly reduced,largely spare CLK3,91%,78%,78%,91%,91%,360 nM,88%,
9%,58%,18%,10%,,"COc1ccc2c(c1)c1ccnc3c4nc(OC)ccc4c(=O)n2c13 [MW01-E6, 5,15-dimethoxy-1,11,14-triazapentacyclo[10.7.1,0^2,7.0^8,^20.0^13,^18]icosa-2(7),3,5,8(20),9,11,13(18),14,16-nonaen-19-one]",,,,,,,,,,inactive
35%,99%,70%,69%,,"O=c1c2cc(O)ccc2c2nccc3c4cc(O)ccc4n1c32 [MW01-E10, 5,16-dihydroxy-1,11-diazapentacyclo[10.7.1.0^2,^7.0^8,^20.0^13,^18]icosa-2(7),3,5,8(20),9,11,13(18),14,16-nonaen-19-one]",,,,,,,,,,
7%,67%,20%,6%,,"COc1ccc2c(c1)c1ccnc3c4ccnc(OC)c4c(=O)n2c13 [MW01-E14, 5,17-dimethoxy-1,11,16-triazapentacyclo[10.7.1.0^2,^7.0^8,^20.0^13,^18]icosa-2(7),3,5,8(20),9,11,13(18),14,16-nonaen-19-one]",,,,,,,,,,inactive
35%,98%,70%,61%,,"O=c1c2cnccc2c2nccc3c4cc(O)ccc4n1c32 [MW01-E18, 5-hydroxy-1,11,16-triazapentacyclo[10.7.1.0^2,^7.0^8,^20.0^13,^18]icosa-2(7),3,5,8(20),9,11,13(18),14,16-nonaen-19-one]",,,,,,,,,,
,,,,,"COc1ccc2cc3c(N)nn(C(=O)c4cccc(N(C)C)c4)c3nc2c1 [MW05, (3-Amino-7-methoxypyrazolo[3,4-b]quinolin-1-yl)-[3-(dimethylamino)phenyl]methanone]",significantly reduced,largely spare CLK3,94%,40%,40%,86%,72%,1440 nM,73%,
5%,75%,74%,16%,inhibited CLK2,"COc1ccc2nc3c(cc2c1)c(N)nn3C(=O)c1cccc(N(C)C)c1 [MW05-E2, 1-[3-(dimethylamino)benzoyl]-6-methoxy-1H-pyrazolo[3,4-b]quinolin-3-amine]",,,,,,,,,,inactive; also recorded: lacking activity
